ChEMBL document CHEMBL3885881, “DrugMatrix”

Species on record: Rattus norvegicus
Assay: DrugMatrix - Regimen: Daily Repeat
Assay type: toxicity, organism-based, Sprague-Dawley
Design: regimen Daily Repeat, gender Male, age 6-8 weeks
Conditions: in vivo, po, route oral GAVAGE, vehicle 100 % WATER; for ABSOLUTE BASOPHIL / ABSOLUTE EOSINOPHIL / ABSOLUTE LYMPHOCYTE / ABSOLUTE MONOCYTE / ABSOLUTE SEGMENTED NEUTROPHIL / BASOPHIL / EOSINOPHIL / ERYTHROCYTE COUNT / HEMATOCRIT / HEMOGLOBIN / LEUKOCYTE COUNT / LYMPHOCYTE / MEAN CORPUSCULAR HEMOGLOBIN / MEAN CORPUSCULAR HEMOGLOBIN CONCENTRATION / MEAN CORPUSCULAR VOLUME / MONOCYTE / NEUTROPHIL / NUCLEATED RED BLOOD CELLS / PLATELET COUNT: tissue Blood; for ALANINE AMINOTRANSFERASE / ALBUMIN / ALKALINE PHOSPHATASE / ASPARTATE AMINOTRANSFERASE / BLOOD UREA NITROGEN / CARBON DIOXIDE / CHLORIDE / CHOLESTEROL / CREATINE PHOSPHOKINASE / CREATININE / GLUCOSE / LACTATE DEHYDROGENASE / LIPASE / PHOSPHORUS / POTASSIUM / SODIUM / TOTAL BILIRUBIN / TOTAL PROTEIN / URIC ACID: tissue Plasma
[1] = 0 mg/kg, 72 h, dose level Control, time 3 day
[2] = 0 mg/kg, 120 h, dose level Control, time 5 day
[3] = 30 mg/kg, 72 h, dose level Low, time 3 day

CC(C)NCC(O)c1ccc(NS(C)(=O)=O)cc1 (centres undefined) [SOTALOL]
ABSOLUTE BASOPHIL [1]: 0 CELLS/uL | ABSOLUTE EOSINOPHIL [1]: 102 CELLS/uL | ABSOLUTE LYMPHOCYTE [1]: 12758 CELLS/uL | ABSOLUTE MONOCYTE [1]: 197.17 CELLS/uL | ABSOLUTE SEGMENTED NEUTROPHIL [1]: 1259.5 CELLS/uL | BASOPHIL [1]: 0% | EOSINOPHIL [1]: 0.83% | ERYTHROCYTE COUNT [1]: 5.3 x10E6/uL | HEMATOCRIT [1]: 33.47% | HEMOGLOBIN [1]: 13.12 G/DL | LEUKOCYTE COUNT [1]: 14.32 x10E3/uL | LYMPHOCYTE [1]: 89.33% | MEAN CORPUSCULAR HEMOGLOBIN [1]: 24.8 pg | MEAN CORPUSCULAR HEMOGLOBIN CONCENTRATION [1]: 39.18 G/DL | MEAN CORPUSCULAR VOLUME [1]: 63.25 fL | MONOCYTE [1]: 1.33% | NEUTROPHIL [1]: 8.5% | NUCLEATED RED BLOOD CELLS [1]: 0 /100WBC | PLATELET COUNT [1]: 1313.17 x10E3/uL | ALANINE AMINOTRANSFERASE [1]: 52.67 u/L | ALBUMIN [1]: 4.05 G/DL | ALKALINE PHOSPHATASE [1]: 372 u/L | ASPARTATE AMINOTRANSFERASE [1]: 82.83 u/L | BLOOD UREA NITROGEN [1]: 15 mg/dL | CARBON DIOXIDE [1]: 25.67 mmol/L | CHLORIDE [1]: 102.17 MEQ/L | CHOLESTEROL [1]: 68.83 mg/dL | CREATINE PHOSPHOKINASE [1]: 285 u/L | CREATININE [1]: 0.18 mg/dL | GLUCOSE [1]: 149.17 mg/dL | LACTATE DEHYDROGENASE [1]: 263.83 u/L | LIPASE [1]: 10.17 u/L | PHOSPHORUS [1]: 12.58 mg/dL | POTASSIUM [1]: 6.58 MEQ/L | SODIUM [1]: 144.22 MEQ/L | TOTAL BILIRUBIN [1]: 0.22 mg/dL | TOTAL PROTEIN [1]: 5.83 G/DL | URIC ACID [1]: 1.58 mg/dL | ABSOLUTE BASOPHIL [2]: 0 CELLS/uL | ABSOLUTE EOSINOPHIL [2]: 24 CELLS/uL | ABSOLUTE LYMPHOCYTE [2]: 11134.17 CELLS/uL | ABSOLUTE MONOCYTE [2]: 56.33 CELLS/uL | ABSOLUTE SEGMENTED NEUTROPHIL [2]: 1235.5 CELLS/uL | BASOPHIL [2]: 0% | EOSINOPHIL [2]: 0.17% | ERYTHROCYTE COUNT [2]: 5.68 x10E6/uL | HEMATOCRIT [2]: 35.72% | HEMOGLOBIN [2]: 13.93 G/DL | LEUKOCYTE COUNT [2]: 12.45 x10E3/uL | LYMPHOCYTE [2]: 89.5% | MEAN CORPUSCULAR HEMOGLOBIN [2]: 24.63 pg | MEAN CORPUSCULAR HEMOGLOBIN CONCENTRATION [2]: 39.13 G/DL | MEAN CORPUSCULAR VOLUME [2]: 62.97 fL | MONOCYTE [2]: 0.5% | NEUTROPHIL [2]: 9.83% | NUCLEATED RED BLOOD CELLS [2]: 0 /100WBC | PLATELET COUNT [2]: 1204 x10E3/uL | ALANINE AMINOTRANSFERASE [2]: 59.5 u/L | ALBUMIN [2]: 4.38 G/DL | ALKALINE PHOSPHATASE [2]: 415.67 u/L | ASPARTATE AMINOTRANSFERASE [2]: 91.33 u/L | BLOOD UREA NITROGEN [2]: 17 mg/dL | CARBON DIOXIDE [2]: 26.33 mmol/L | CHLORIDE [2]: 104.17 MEQ/L | CHOLESTEROL [2]: 77 mg/dL | CREATINE PHOSPHOKINASE [2]: 249.67 u/L | CREATININE [2]: 0.21 mg/dL | GLUCOSE [2]: 148.33 mg/dL | LACTATE DEHYDROGENASE [2]: 168.5 u/L | LIPASE [2]: 10.17 u/L | PHOSPHORUS [2]: 12.92 mg/dL | POTASSIUM [2]: 7.09 MEQ/L | SODIUM [2]: 148.37 MEQ/L | TOTAL BILIRUBIN [2]: 0.23 mg/dL | TOTAL PROTEIN [2]: 6.3 G/DL | URIC ACID [2]: 1.77 mg/dL | ABSOLUTE BASOPHIL [3]: 0 CELLS/uL | ABSOLUTE EOSINOPHIL [3]: 90.67 CELLS/uL | ABSOLUTE LYMPHOCYTE [3]: 14675.33 CELLS/uL | ABSOLUTE MONOCYTE [3]: 254 CELLS/uL | ABSOLUTE SEGMENTED NEUTROPHIL [3]: 1113.33 CELLS/uL | BASOPHIL [3]: 0% | EOSINOPHIL [3]: 0.67% | ERYTHROCYTE COUNT [3]: 5.44 x10E6/uL | HEMATOCRIT [3]: 34.57% | HEMOGLOBIN [3]: 13.43 G/DL | LEUKOCYTE COUNT [3]: 16.13 x10E3/uL | LYMPHOCYTE [3]: 91% | MEAN CORPUSCULAR HEMOGLOBIN [3]: 24.7 pg | MEAN CORPUSCULAR HEMOGLOBIN CONCENTRATION [3]: 38.93 G/DL | MEAN CORPUSCULAR VOLUME [3]: 63.47 fL | MONOCYTE [3]: 1.67% | NEUTROPHIL [3]: 6.67% | NUCLEATED RED BLOOD CELLS [3]: 0.67 /100WBC | PLATELET COUNT [3]: 1241 x10E3/uL | ALANINE AMINOTRANSFERASE [3]: 52.67 u/L | ALBUMIN [3]: 4.13 G/DL | ALKALINE PHOSPHATASE [3]: 380.33 u/L | ASPARTATE AMINOTRANSFERASE [3]: 95.67 u/L | BLOOD UREA NITROGEN [3]: 15 mg/dL | CARBON DIOXIDE [3]: 25.67 mmol/L | CHLORIDE [3]: 102 MEQ/L | CHOLESTEROL [3]: 74 mg/dL | CREATINE PHOSPHOKINASE [3]: 490.33 u/L | CREATININE [3]: 0.16 mg/dL | GLUCOSE [3]: 152.33 mg/dL | LACTATE DEHYDROGENASE [3]: 497 u/L | LIPASE [3]: 10.33 u/L | PHOSPHORUS [3]: 13.97 mg/dL | POTASSIUM [3]: 6.87 MEQ/L | SODIUM [3]: 144.53 MEQ/L | TOTAL BILIRUBIN [3]: 0.23 mg/dL | TOTAL PROTEIN [3]: 5.8 G/DL | URIC ACID [3]: 2.13 mg/dL
